From patent US4322540A, “Substituted 4,5,6,7-tetrahydro-1H (or 2H)-indazoles” (Eli Lilly and Company, priority 1981, dated 1982)
Counter-ions that a name gives are not always drawn.

What was measured:
[1] = test system: nigro-neostriatal-lesioned rats; test: Turning behavior in 6-hydroxy-dopamine-lesioned rats (dopamine agonist activity); assay type: in vivo, rat; settings: intraperitoneal; for Percent of rats exhibiting turning behavior: 15-minute period after latency; for Number of turns (average): counted over 15-minute period
Method: In this test, nigro-neostriatal-lesioned rats, prepared by the procedure of Ungerstedt and Arbuthnott, Brain Res, 24, 485 (1970) are employed. A compound having dopamine agonist activity, upon injection, causes the rats to turn in circles contralateral to the side of the lesion. After a latency period, which varies from compound to compound, the number of turns is counted over a 15-minute period. The compounds are dissolved in water and the resulting aqueous solution injected into the rat by the intraperitioneal route at a series of dose levels.

[2] = test system: prolactin; test: Inhibition of prolactin secretion in reserpine-treated rats; assay type: in vivo, adult male rats of the Sprague-Dawley strain; settings: intraperitoneal, serum one hour after treatment, reserpine-treated male rats
Method: The compounds of this invention are also useful as prolactin inhibitors and as such can be employed in the treatment of inappropriate lactation, such as postpartum lactation and galactorrhea.
Adult male rats of the Sprague-Dawley strain weighing about 200 g. were housed in an air-conditioned room with controlled lighting (lights on 6 a.m.-8 p.m.) and fed lab chow and water ad libitum. Each rat received an intraperitioneal injection of 2.0 mg. of reserpine in aqueous suspension 18 hours before administration of the indazole. The purpose of the reserpine was to keep prolactin levels uniformly elevated. The compounds under test were dissolved in water and were injected intraperitioneally at doses ranging from 5 mg/kg down to […]. Each compound was administered at each dose level to a group of 10 rats, and a control group of 10 intact males received an equivalent amount of solvent. One hour after treatment all rats were killed by decapitation, and 150 μl aliquots of serum were assayed for prolactin.
The difference between the prolactin level of the treated rats and prolactin level of the control rats divided by the prolactin level of the control rats gives the percent inhibition of prolactin secretion attributable to the compounds of this invention. In the table, column 1 gives the name of the compound; and columns 2-4 the percent prolactin inhibition at the given dose level.

[3] = test system: mouse; test: Acute toxicity (LD50) by the intraperitoneal route in the mouse; assay type: in vivo
Method: In using the compounds of this invention to inhibit prolactin secretion or to treat Parkinson's syndrome or for other pharmacologic action, a compound according to Formulas I and II above, or a salt thereof with a pharmaceutically-acceptable acid, is administered to a subject suffering from Parkinsonism, or in need of having their prolactin level reduced, in an amount effective to alleviate some of the symptoms of Parkinsonism or to reduce an elevated prolactin level. Oral administration is preferred. If parenteral administration is used, the injection is preferably by the subcutaneous route using an appropriate pharmaceutical formulation. […] In particular, with intravenous or intramuscular administration, a water soluble pharmaceutically-acceptable salt is employed. For oral administration, a compound according to Formulas I and II either as the free base or in the form of a salt thereof can also be mixed with standard pharmaceutical excipients and loaded into empty telescoping gelatin capsules or pressed into tablets. The oral dosage should be in the range 0.01-10 mg/kg of mammalian body weight and the parenteral dose in the range 0.0025 to 2.5 mg/kg. The LD50 of dl-5-di(n-propyl)amino-4,5,6,7-tetrahydro-1H(and 2H)-indazole dihydrochloride is between 100 and 300 mg/kg by the intraperitoneal route in the mouse.

Row | SMILES | Percent of rats exhibiting turning behavior ([1]; 1 mg/kg) | Number of turns (average) ([1]; 1 mg/kg) | Percent Inhibition of Prolactin ([2]; 5 mg/kg) | Percent Inhibition of Prolactin ([2]; 50 mcg/kg) | Percent Inhibition of Prolactin ([2]; 500 mcg/kg) | Lethality ([3]; 10 mg/kg) | Lethality ([3]; 30 mg/kg) | Side effects ([3]; 30 mg/kg) | Percent of rats exhibiting turning behavior ([1]; 100 mcg/kg) | Number of turns (average) ([1]; 100 mcg/kg) | Percent of rats exhibiting turning behavior ([1]; 250 mcg/kg) | Number of turns (average) ([1]; 250 mcg/kg)
1 | NC1CCc2[nH]ncc2C1 (racemic) [dl-5-Amino-4,5,6,7-tetrahydro-1H-indazole dihydrochloride and dl-5-amino-4,5,6,7-tetrahydro-2H-indazole dihydrochloride] | 33% | 7 turns | – | – | – | – | – | – | – | – | – | –
2 | CN(C)C1CCc2[nH]ncc2C1 (racemic) [dl-5-Dimethylamino-4,5,6,7-tetrahydro-1H-indazole dihydrochloride and dl-5-dimethylamino-4,5,6,7-tetrahydro-2H-indazole dihydrochloride] | 33% | 5 turns | 73% | 31% | 30% | – | – | – | – | – | – | –
3 | CCCN(CCC)C1CCc2n[nH]cc2C1 (racemic) [dl-5-di(n-propyl)amino-4,5,6,7-tetrahydro-1H(and 2H)-indazole dihydrochloride] | 67% | 48 turns | 94% | 1% | 66% | not fatal | not fatal | produces some undesirable side effects | 33% | 6 turns | – | –
4 | CCCN(CCC)C1CCc2cn[nH]c2C1 (racemic) [dl-6-di-(n-propyl)amino-4,5,6,7-tetrahydro-1H(and 2H)-indazole dihydrochloride] | 100% | 98 turns | – | 31% | – | – | – | – | 0% | – | 50% | 30 turns
